Data taken from ChEMBL document CHEMBL5465560, “Selectivity Literature for EUbOPEN Chemogenomic Library” (2024).
Each block holds one compound with its values, some of them ahead of it.

How the values were obtained:
[1] = test system: Epidermal growth factor receptor (Homo sapiens), P00533 [UNDEFINED MUTATION]; assay: Selectivity interaction (KinomeScan (DiscoverX)) EUB0001049a EGFR; conditions: at 1 µM
[2] = biological target: T1, cGMP-dependent protein kinase 2 (Homo sapiens) (UniProt Q13237); assay: Selectivity interaction (Kinase panel (Z-LYTE Assay)) EUB0001632a PRKG2; conditions: at 10 µM
T1 sequence (whole entry): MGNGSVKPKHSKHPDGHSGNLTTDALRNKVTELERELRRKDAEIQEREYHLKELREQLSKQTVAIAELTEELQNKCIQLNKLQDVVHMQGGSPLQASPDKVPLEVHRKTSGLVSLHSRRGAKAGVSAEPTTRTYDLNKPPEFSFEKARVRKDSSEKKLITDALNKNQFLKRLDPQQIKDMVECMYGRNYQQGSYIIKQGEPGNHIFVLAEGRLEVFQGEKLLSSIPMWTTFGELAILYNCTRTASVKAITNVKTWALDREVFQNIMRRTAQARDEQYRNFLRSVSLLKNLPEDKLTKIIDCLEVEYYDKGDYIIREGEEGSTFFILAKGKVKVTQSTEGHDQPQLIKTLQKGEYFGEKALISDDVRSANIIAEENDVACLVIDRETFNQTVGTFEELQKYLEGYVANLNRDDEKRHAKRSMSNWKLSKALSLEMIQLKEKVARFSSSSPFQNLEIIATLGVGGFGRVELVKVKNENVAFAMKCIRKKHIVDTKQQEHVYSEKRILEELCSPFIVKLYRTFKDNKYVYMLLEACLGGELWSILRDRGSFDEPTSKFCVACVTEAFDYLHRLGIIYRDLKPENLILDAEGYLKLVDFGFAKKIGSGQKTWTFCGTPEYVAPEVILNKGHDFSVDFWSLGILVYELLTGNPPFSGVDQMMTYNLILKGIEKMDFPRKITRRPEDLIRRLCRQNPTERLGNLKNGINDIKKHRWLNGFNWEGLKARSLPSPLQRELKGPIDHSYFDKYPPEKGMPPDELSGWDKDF

[3] = biological target: RAC-gamma serine/threonine-protein kinase (Homo sapiens, UniProt Q9Y243); assay: Selectivity interaction (Rxn Biology Kinase assay) EUB0001632a AKT3; conditions: at 10 µM
[4] = biological target: Receptor tyrosine-protein kinase erbB-2 (Homo sapiens, UniProt P04626); conditions: at 10 µM
[5] = biological target: Serine/threonine-protein kinase Nek7 (Homo sapiens) (UniProt Q8TDX7); assay: Selectivity interaction (ProQinase) EUB0000171b NEK7
[6] = biological target: Bromodomain adjacent to zinc finger domain protein 1A (Homo sapiens) (UniProt Q9NRL2); assay: Selectivity interaction (Human bromodomain panel (DSF assay)) EUB0000233b BAZ1A
[7] = biological target: T2, Phosphatidylinositol 3-kinase C2 domain-containing subunit gamma (Homo sapiens) (UniProt O75747); assay: Selectivity interaction (KinomeScan (DiscoverX)) EUB0000607a PIK3C2G; conditions: at 10 µM
T2 sequence (whole entry): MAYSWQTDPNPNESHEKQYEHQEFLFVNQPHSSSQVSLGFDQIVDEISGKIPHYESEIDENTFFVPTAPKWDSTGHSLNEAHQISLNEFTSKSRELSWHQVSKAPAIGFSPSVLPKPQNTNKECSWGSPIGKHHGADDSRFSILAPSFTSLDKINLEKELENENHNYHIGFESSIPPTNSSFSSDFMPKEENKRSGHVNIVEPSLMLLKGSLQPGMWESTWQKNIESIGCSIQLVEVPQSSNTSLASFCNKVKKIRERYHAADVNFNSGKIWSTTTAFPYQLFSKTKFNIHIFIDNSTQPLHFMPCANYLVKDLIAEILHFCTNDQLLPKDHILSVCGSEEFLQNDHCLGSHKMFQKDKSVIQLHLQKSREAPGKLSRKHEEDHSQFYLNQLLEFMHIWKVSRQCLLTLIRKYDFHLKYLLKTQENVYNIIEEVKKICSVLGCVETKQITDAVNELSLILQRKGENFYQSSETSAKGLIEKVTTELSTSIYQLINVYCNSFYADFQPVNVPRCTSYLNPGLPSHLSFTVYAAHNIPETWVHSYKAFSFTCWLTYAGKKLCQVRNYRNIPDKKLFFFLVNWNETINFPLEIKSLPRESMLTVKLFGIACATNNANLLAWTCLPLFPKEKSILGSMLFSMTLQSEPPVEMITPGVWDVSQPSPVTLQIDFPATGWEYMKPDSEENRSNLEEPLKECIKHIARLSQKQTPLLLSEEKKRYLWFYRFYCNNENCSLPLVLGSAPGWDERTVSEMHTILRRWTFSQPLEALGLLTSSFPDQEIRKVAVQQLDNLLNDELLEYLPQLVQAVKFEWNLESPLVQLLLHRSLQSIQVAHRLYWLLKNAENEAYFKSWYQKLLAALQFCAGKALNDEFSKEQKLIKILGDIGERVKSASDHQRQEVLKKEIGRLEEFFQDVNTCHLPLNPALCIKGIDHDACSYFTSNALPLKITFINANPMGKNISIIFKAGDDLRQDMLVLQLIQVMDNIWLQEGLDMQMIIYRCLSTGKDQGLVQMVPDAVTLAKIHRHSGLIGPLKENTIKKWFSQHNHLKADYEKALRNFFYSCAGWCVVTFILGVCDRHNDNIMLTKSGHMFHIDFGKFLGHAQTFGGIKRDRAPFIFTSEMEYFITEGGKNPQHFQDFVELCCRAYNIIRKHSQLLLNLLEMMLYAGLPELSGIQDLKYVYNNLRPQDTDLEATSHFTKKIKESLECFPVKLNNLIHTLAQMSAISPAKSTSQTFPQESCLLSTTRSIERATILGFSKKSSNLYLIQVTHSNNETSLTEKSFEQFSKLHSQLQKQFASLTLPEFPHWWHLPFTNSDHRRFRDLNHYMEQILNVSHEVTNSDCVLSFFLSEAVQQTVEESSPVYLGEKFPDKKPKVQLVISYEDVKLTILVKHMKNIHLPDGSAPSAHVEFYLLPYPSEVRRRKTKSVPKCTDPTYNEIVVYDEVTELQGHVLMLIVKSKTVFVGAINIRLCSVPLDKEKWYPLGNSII

Chain of Serine/threonine-protein kinase Nek7 (Homo sapiens) (Q8TDX7 whole entry, looked up, the tested form may be a part): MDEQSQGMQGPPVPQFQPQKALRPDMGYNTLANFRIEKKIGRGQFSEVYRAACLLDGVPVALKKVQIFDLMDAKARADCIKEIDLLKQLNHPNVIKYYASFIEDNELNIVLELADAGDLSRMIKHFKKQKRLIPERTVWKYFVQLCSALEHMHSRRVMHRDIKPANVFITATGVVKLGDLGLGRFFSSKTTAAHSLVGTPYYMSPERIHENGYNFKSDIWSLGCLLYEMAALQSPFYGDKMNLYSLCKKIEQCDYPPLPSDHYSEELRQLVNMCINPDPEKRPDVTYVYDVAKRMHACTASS
Chain of Receptor tyrosine-protein kinase erbB-2 (P04626 whole entry): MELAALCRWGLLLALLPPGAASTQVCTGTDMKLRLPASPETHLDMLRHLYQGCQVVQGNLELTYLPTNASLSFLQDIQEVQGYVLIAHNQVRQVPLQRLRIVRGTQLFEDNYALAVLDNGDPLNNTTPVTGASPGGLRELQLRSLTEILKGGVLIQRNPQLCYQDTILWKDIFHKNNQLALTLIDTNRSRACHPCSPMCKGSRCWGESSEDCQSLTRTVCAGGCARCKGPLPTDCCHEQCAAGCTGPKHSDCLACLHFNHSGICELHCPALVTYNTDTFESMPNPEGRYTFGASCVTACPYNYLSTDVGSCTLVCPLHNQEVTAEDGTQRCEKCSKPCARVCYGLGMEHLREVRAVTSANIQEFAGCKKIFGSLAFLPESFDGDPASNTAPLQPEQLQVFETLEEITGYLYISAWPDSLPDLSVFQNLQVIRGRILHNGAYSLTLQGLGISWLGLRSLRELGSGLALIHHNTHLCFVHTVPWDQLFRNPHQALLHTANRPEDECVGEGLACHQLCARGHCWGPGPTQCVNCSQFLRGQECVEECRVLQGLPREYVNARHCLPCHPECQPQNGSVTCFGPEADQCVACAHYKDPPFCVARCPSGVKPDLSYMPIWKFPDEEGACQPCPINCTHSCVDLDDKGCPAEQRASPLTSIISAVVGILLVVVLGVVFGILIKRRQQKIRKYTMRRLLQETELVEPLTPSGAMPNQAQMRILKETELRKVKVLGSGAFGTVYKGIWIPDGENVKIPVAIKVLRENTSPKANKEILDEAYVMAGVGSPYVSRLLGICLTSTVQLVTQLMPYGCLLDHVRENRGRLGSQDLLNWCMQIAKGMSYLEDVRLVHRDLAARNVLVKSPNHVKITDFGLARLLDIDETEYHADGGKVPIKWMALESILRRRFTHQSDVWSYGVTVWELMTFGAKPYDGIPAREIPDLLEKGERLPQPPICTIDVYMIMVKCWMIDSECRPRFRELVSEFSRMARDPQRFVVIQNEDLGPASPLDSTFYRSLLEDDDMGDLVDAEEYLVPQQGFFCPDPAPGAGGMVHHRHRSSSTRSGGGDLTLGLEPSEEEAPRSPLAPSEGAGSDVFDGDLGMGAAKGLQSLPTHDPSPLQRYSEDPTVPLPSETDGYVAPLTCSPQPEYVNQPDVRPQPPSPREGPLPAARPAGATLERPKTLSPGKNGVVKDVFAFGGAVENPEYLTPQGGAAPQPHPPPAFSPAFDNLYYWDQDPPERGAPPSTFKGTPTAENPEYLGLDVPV
Chain of Epidermal growth factor receptor (Homo sapiens), P00533 [UNDEFINED MUTATION] (P00533 whole entry, looked up, change not shown): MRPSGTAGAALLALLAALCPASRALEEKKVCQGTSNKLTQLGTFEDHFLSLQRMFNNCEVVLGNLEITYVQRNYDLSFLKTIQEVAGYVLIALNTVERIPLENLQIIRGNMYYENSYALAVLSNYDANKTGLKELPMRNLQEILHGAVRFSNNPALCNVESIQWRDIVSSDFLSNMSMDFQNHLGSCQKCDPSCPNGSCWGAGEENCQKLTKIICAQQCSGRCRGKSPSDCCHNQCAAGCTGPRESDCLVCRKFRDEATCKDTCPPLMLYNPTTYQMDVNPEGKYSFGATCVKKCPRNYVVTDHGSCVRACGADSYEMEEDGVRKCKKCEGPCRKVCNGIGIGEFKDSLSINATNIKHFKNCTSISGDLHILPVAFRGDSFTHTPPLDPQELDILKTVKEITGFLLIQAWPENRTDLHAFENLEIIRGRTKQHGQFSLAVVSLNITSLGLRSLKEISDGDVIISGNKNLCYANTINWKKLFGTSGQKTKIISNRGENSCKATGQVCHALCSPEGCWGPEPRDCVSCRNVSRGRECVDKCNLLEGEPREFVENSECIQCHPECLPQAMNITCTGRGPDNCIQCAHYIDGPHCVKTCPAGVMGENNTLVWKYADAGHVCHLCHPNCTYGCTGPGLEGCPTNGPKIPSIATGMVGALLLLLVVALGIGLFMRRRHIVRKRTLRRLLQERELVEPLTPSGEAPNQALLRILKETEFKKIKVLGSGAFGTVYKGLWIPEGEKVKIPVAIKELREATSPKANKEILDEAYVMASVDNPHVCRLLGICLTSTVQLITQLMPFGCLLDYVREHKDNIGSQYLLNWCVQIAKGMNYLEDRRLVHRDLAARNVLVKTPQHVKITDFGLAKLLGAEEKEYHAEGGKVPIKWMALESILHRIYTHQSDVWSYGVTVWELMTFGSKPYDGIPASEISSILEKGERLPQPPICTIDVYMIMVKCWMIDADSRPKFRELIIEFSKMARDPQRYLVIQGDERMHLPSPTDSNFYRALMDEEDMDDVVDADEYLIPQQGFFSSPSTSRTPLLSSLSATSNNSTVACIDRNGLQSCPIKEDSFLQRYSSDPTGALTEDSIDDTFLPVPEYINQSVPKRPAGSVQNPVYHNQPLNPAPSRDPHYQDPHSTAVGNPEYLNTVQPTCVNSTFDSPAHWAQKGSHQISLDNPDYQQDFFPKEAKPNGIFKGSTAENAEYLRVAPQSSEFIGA
Chain of RAC-gamma serine/threonine-protein kinase (Q9Y243 whole entry): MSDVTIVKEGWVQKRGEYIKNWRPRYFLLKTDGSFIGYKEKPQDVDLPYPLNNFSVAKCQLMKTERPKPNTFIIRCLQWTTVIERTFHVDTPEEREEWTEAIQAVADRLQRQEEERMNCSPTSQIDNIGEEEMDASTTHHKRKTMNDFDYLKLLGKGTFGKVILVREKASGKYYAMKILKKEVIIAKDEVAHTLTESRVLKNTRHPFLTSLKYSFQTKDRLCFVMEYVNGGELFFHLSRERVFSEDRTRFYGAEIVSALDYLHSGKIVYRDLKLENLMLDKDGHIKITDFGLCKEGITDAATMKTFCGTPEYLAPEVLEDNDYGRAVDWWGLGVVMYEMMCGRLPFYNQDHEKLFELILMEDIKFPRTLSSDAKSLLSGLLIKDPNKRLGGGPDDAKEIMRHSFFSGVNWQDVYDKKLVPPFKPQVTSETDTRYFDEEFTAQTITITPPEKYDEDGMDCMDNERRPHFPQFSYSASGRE
Chain of Bromodomain adjacent to zinc finger domain protein 1A (Homo sapiens) (Q9NRL2 whole entry, the tested form may be a part): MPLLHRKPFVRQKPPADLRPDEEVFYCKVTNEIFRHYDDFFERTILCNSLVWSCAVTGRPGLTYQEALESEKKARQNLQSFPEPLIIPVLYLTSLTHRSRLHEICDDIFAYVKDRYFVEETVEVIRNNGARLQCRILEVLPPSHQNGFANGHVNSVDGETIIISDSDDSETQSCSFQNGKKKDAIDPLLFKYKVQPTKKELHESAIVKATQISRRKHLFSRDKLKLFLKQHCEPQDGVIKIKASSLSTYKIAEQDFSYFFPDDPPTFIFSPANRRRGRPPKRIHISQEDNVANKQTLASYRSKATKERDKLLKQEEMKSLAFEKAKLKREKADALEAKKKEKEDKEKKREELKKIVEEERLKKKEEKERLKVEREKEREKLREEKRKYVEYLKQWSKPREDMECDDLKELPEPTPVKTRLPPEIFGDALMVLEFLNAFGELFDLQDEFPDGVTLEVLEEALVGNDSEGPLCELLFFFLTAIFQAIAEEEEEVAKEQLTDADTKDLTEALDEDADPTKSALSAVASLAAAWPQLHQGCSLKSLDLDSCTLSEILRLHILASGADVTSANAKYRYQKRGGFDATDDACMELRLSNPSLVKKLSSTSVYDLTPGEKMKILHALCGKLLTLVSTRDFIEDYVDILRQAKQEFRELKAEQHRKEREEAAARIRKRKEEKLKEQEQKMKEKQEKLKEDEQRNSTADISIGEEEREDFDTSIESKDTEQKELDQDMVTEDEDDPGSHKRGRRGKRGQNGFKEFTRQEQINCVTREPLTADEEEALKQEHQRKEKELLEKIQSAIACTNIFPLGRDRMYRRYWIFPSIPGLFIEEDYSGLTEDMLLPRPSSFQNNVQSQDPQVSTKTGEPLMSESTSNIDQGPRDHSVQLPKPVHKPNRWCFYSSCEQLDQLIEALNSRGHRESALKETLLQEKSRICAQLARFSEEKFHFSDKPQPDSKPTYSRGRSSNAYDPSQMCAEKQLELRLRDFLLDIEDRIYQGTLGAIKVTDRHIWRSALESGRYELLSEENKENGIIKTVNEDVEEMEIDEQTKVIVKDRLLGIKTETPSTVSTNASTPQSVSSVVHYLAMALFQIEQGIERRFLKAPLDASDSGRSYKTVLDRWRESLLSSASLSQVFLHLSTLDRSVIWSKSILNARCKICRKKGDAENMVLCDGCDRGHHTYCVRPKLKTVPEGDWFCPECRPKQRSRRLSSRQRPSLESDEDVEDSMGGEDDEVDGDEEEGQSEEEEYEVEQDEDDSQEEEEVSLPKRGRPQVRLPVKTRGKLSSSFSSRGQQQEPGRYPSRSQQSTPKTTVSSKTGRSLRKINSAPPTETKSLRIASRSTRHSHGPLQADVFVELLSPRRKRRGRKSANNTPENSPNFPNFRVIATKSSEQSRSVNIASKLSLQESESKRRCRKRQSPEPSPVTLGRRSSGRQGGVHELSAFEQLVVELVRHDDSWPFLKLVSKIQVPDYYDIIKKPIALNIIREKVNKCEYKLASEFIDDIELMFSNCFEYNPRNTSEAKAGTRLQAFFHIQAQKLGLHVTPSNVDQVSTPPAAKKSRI

Structure (SMILES): COc1cc(Nc2nc(C)cc(-c3cnn4nc(OC)ccc34)n2)cc(C(F)(F)F)c1
% of control [1]: 83%

% of control [2]: -2.3%
% of inhibition [3]: 6.75%
Structure (SMILES): Cn1cc(-n2cnc3c(NCc4nc5cc(Cl)c(Cl)cc5[nH]4)nc(N4CCOCC4)nc32)cn1

Structure (SMILES): COCC(=O)NC/C=C/c1ccc2ncnc(Nc3ccc(Oc4ccc(C)nc4)c(C)c3)c2c1 [CP-724714]
% of control [4]: 0%

% of control ([5]; at 1 µM): 91%
% of control ([5]; at 5 µM): 95%
Structure (SMILES): C=CC(=O)Nc1cccc(C(=O)Nc2ccc(Nc3cc(-c4[nH]c(SC)nc4C)ccn3)cc2)c1

dTM [6]: < 2 K
Structure (SMILES): CN(C)CCCOc1ccc(-c2cc(NCCCn3cccn3)nc(S(C)(=O)=O)n2)cc1

Structure (SMILES): CNC(=O)Nc1ccc(-c2nc(N3CC4CCC(C3)O4)c3cnn(C4CCC5(CC4)OCCO5)c3n2)cc1
% of control [7]: 22%
